This note sets out measurements from patent US7109333B2, “Heterocyclic compounds” (SmithKline Beecham Corporation, priority 1998, dated 2006).

In experiment [1] the test system is HB4a c5.2 (HB4a transfected with human c-erbB2 cDNA). Put plainly: Methylene blue growth inhibition assay, HB4a erbB2. Particulars: 72 h, HB4a c5.2, 3 days, read-out: Cell Proliferation HB4a erbB2, IC50. The format is cell-based. The method, then:
(§1) Human breast (BT474), head and neck (HN5) and gastric tumor (N87) cell lines were cultured in low glucose DMEM (Life Technologies 12320–032) containing 10% fetal bovine serum (FBS) at 37° C. in a humidified 10% CO2, 90% air incubator. The SV40 transformed human mammary epithelial cell line HB4a was transfected with either human H-ras cDNA (HB4a r4.2) or the human c-erbB2 cDNA (HB4a c5.2). The HB4a clones were cultured in RPMI containing 10% FBS, insulin (5 μg/ml), hydrocortisone (5 μg/ml), supplemented with the selection agent hygromycin B (50 μg/ml). Cells were harvested using trypsin/EDTA, counted using a haemocytometer, and plated in […] of the appropriate media, at the following densities, in a 96-well tissue culture plate (Falcon 3075): BT474 10,000 cells/well, HN5 3,000 cells/well, N87 10,000 cells/well, HB4a c5.2 3,000 cells/well, HB4a r4.2 3,000 cells/well. The next day, compounds were diluted in DMEM containing […] gentamicin, at twice the final required concentration, from 10 mM stock solutions in DMSO. […] of these dilutions were added to the […] of media currently on the cell plates. Medium containing 0.6% DMSO was added to control wells. Compounds diluted in DMEM were added to all cell lines, including the HB4a r4.2 and HB4a c5.2 cell lines. The final concentration of DMSO in all wells was 0.3%. Cells were incubated at 37° C., 10% CO2 for 3 days. Medium was removed by aspiration. Cell biomass was estimated by staining cells with 100 μl per well methylene blue (Sigma M9140, 0.5% in 50:50 ethanol:water), and incubation at room temperature for at least 30 minutes. Stain was removed, and the plates rinsed under a gentle stream of water, and air-dried. To release stain from the cells 100 μl of solubilization solution was added (1% N-lauroyl sarcosine, Sodium salt, Sigma L5125, in PBS), and plates were shaken gently for about 30 minutes. Optical density at 620 nm was measured on a microplate reader. Percent inhibition of cell growth was calculated relative to vehicle treated control wells. Concentration of compound that inhibits 50% of cell growth (IC50) was interpolated using nonlinear regression (Levenberg-Marquardt) and the equation, y=Vmax*(1−(x/(K+x)))+Y2, where “K” was equal to the IC50.

Experiment [2] has as its system HB4a r4.2 (HB4a transfected with human H-ras cDNA). In words: Methylene blue growth inhibition assay, HB4a ras. The class given is cell-based. Particulars: 72 h, HB4a r4.2, 3 days, read-out: Cell Proliferation HB4a ras, IC50. On the procedure:
as §1

Experiment [3] deals with BT474 breast tumor cell line. Put plainly: Methylene blue growth inhibition assay, BT474. The format is cell-based. The conditions noted are these: Homo sapiens, BT-474, 72 h; BT474, 3 days; read-out: Cell Proliferation BT474, IC50. On the procedure:
as §1

Experiment [4] concerns HN5 head and neck tumor cell line. In words: Methylene blue growth inhibition assay, HN5. The format is cell-based. The conditions noted are these: Homo sapiens, 72 h; HN5, 3 days; read-out: Cell Proliferation HN5, IC50. The method, then: as §1
The test system of experiment [5] is N87 gastric tumor cell line. In words: Methylene blue growth inhibition assay, N87. Particulars: Homo sapiens, 72 h; N87, 3 days; read-out: Cell Proliferation N87, IC50. The format is cell-based. On the procedure: as §1
Another experiment deals with T1, c-erbB-2 (Homo sapiens, UniProt P04626).
T1 construct: baculovirus expressed, recombinant constructs of the intracellular domains of c-erbB-2 and c-erbB-4; made in house
In words: Substrate phosphorylation assay, erbB2, assay (b) (SPA, 33P-ATP). The format is biochemical. The conditions noted are these: Tables 1A and 1B. The source says:
The substrate phosphorylation assays use baculovirus expressed, recombinant constructs of the intracellular domains of c-erbB-2 and c-erbB-4 that are constitutively active and EGFr isolated from solubilised A431 cell membranes. The method measures the ability of the isolated enzymes to catalyse the transfer of the g-phosphate from ATP onto tyrosine residues in a biotinylated synthetic peptide (Biotin-[…]. Substrate phosphorylation was detected following either of the following two procedures: a.) c-ErbB-2, c-ErbB4 or EGFr were incubated for 30 minutes, at room temperature, with 10 mM MnCl2, 10 mM ATP, 5 mM peptide, and test compound (diluted from a 5 mM stock in DMSO, final DMSO concentration is 2%) in 40 mM HEPES buffer, pH 7.4. The reaction was stopped by the addition of EDTA (final concentration 0.15 mM) and a sample was transferred to a streptavidin-coated 96-well plate. The plate was washed and the level of phosphotyrosine on the peptide was determined using a Europium-labelled antiphosphotyrosine antibody and quantified with a time-resolved fluorescence technique. b.) ErbB2 was incubated for 50 minutes at room temperature with 15 mM MnCl2, 2 mM ATP, 0.25 mCi [γ-^33P] ATP/well, 5 mM peptide substrate, and test compound (diluted from a 10 mM stock in DMSO, final DMSO concentration is 2%) in 50 mM MOPS pH 7.2. The reaction was terminated by the addition of […] of PBS containing 2.5 mg/ml streptavidin-coated SPA beads (Amersham Inc.), 50 mM ATP, 10 mM EDTA and 0.1% TX-100. The microtitre plates were sealed and SPA beads were allowed to settle for at least six hours. The SPA signal was measured using a Packard Topcount 96-well plate scintillation counter (Packard Instrument Co., Meriden, Conn.).

Structures are written as SMILES.

T1 sequence (P04626 676-1255 limits assumed): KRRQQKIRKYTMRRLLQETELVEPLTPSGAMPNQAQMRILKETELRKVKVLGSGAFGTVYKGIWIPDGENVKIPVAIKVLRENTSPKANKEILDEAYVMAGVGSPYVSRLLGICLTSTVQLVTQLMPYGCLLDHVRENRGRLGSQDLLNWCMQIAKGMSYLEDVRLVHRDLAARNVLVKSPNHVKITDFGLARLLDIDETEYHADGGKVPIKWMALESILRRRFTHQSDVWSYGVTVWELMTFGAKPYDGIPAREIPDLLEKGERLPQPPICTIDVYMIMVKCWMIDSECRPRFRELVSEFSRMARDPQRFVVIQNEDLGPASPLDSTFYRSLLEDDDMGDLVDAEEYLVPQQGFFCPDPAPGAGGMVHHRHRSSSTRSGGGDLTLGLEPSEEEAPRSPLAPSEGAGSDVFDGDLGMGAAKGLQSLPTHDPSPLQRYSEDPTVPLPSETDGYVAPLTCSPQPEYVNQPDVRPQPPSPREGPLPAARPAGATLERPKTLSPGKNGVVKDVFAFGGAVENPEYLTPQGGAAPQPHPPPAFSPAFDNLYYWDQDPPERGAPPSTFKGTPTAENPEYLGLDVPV

On to `CS(=O)(=O)CCNCc1ccc(-c2ccc3ncnc(Nc4ccc(OCc5cccc(F)c5)c(Cl)c4)c3c2)o1` [Example 29, N-{3-Chloro-4-[(3-fluorobenzyl)oxy]phenyl}-6-[5-({[2-(methanesulphonyl)ethyl]amino}methyl)-2-furyl]-4-quinazolinamine], for which the IC50 in experiment [1] was < 5 µM; in experiment [2] it was > 50 µM; in experiment [3], < 5 µM; in experiment [4] it was < 5 µM; in experiment [5], < 5 µM.

On to `COc1cc(Nc2ncnc3ccc(-c4csc(CNCCS(C)(=O)=O)n4)cc23)ccc1OCc1cccc(F)c1` [Example 12, N-{4-[(3-fluorobenzyl)oxy]-3-methoxyphenyl}-6-[2-({[2-(methanesulphonyl)ethyl]amino}methyl)-1,3-thiazol-4-yl]-4-quinazolinamine], for which the IC50 against c-erbB-2 was 0.1 to 1 µM; in experiment [1], < 5 µM; in experiment [2], > 50 µM; in experiment [3] it was < 5 µM; in experiment [4], 5 to 25 µM; in experiment [5], < 5 µM.

In the case of `CS(=O)(=O)CCNCc1ccc(-c2cc3c(Nc4ccc(S(=O)(=O)c5ccccc5)cc4)ncnc3cc2F)o1` [Example 36, N-[4-(Phenylsulphonyl)phenyl]-7-fluoro-6-[5-({[2-(methanesulphonyl)ethyl]amino]methyl)-2-furyl]-4-quinazolinamine], the IC50 on c-erbB-2 was < 0.1 µM; in experiment [1] it was 5 to 25 µM; in experiment [2], > 50 µM; in experiment [3], 5 to 25 µM; in experiment [4], 5 to 25 µM; in experiment [5] it was 5 to 25 µM.

Take `CS(=O)(=O)CCNCc1nc(-c2ccc3ncnc(Nc4ccc5c(cnn5Cc5cccc(F)c5)c4)c3c2)cs1` [Example 21, N-[1-(3-fluorobenzyl)-1H-indazol-5-yl]-6-[2-({[2-(methanesulphonyl)ethyl]amino}methyl)-1,3-thiazol-4-yl]-4-quinazolinamine]: the IC50 on c-erbB-2 was < 0.1 µM; in experiment [1], < 5 µM; in experiment [2], 5 to 25 µM; in experiment [3], < 5 µM; in experiment [4], < 5 µM; in experiment [5], < 5 µM.

Take `CS(=O)(=O)CCNCc1ccc(-c2ccc3ncnc(Nc4ccc(OCc5cccc(Br)c5)cc4)c3c2)o1` [Example 19, N-{4-[(3-bromobenzyl)oxy]phenyl}-6-[5-({[2-(methanesulphonyl)ethyl]amino}methyl)-2-furyl]-4-quinazolinamine]: the IC50 at c-erbB-2 is < 0.1 µM; in experiment [1], < 5 µM; in experiment [2], > 50 µM; in experiment [3] it was < 5 µM; in experiment [4] it was < 5 µM; in experiment [5], < 5 µM.

On to `COc1cc2ncnc(Nc3ccc(S(=O)(=O)c4ccccc4)cc3)c2cc1-c1ccc(CNCCS(C)(=O)=O)o1` [Example 33, 6-[5-({[2-(Methanesulphonyl)ethyl]amino}methyl)-2-furyl]-7-methoxy-N-(4-benzenesulphonyl)phenyl-4-quinazolinamine], for which the IC50 is < 0.1 µM at c-erbB-2; < 5 µM in experiment [1]; < 5 µM in experiment [2]; < 5 µM in experiment [3]; < 5 µM in experiment [4]; < 5 µM in experiment [5].

As for `CS(=O)(=O)CCNCc1nc(-c2ccc3ncnc(Nc4ccc(S(=O)(=O)c5ccccc5)cc4)c3c2)cs1` [Example 23, 6-[2-({[2-(methanesulphonyl)ethyl]amino}methyl)-1,3-thiazol-4-yl]-N-[4-(benzenesulphonyl)phenyl]-4-quinazolinamine], the IC50 at c-erbB-2 is < 0.1 µM; in experiment [1] it was < 5 µM; in experiment [2], 25 to 50 µM; in experiment [3], < 5 µM; in experiment [4] it was < 5 µM; in experiment [5] it was < 5 µM.

With `CS(=O)(=O)CCNCc1ccc(-c2ccc3ncnc(Nc4ccc(OCc5cccc(F)c5)cc4)c3c2)o1` [Example 8, N-{4-[(3-fluorobenzyl)oxy]phenyl}-6-[5-({[2-(methanesulphonyl)ethyl]amino}methyl)-2-furyl]-4-quinazolinamine], the IC50 against c-erbB-2 was < 0.1 µM; in experiment [1], < 5 µM; in experiment [2], 5 to 25 µM; in experiment [3] it was < 5 µM; in experiment [4] it was < 5 µM; in experiment [5] it was < 5 µM.

For the compound `CS(=O)(=O)CCNCc1ccc(-c2cc3c(Nc4ccc5c(cnn5Cc5ccccc5)c4)ncnc3cc2F)o1` [Example 35], the IC50 is < 0.1 µM on c-erbB-2; < 5 µM in experiment [1]; 25 to 50 µM in experiment [2]; < 5 µM in experiment [3]; < 5 µM in experiment [4]; < 5 µM in experiment [5].

Turning to `CS(=O)(=O)CCNCc1nc(-c2ccc3ncnc(Nc4ccc5c(cnn5Cc5ccccc5)c4)c3c2)cs1` [Example 26, N-(1-benzyl-1H-indazol-5-yl)-6-[2-({[2-(methanesulphonyl)ethyl]amino}methyl)-1,3-thiazol-4-yl]-4-quinazolinamine], the IC50 is < 0.1 µM against c-erbB-2; < 5 µM in experiment [1]; 5 to 25 µM in experiment [2]; < 5 µM in experiment [3]; < 5 µM in experiment [4]; < 5 µM in experiment [5].

Take `CS(=O)(=O)CCNCc1coc(-c2ccc3ncnc(Nc4ccc(OCc5ccccc5)cc4)c3c2)c1` [Example 11, N-[4-(benzyloxy)phenyl]-6-[4-({[2-(methanesulphonyl)ethyl]amino}methyl)-2-furyl]-4-quinazolinamine]: the IC50 against c-erbB-2 was < 0.1 µM; in experiment [1], < 5 µM; in experiment [2] it was > 50 µM; in experiment [3] it was < 5 µM; in experiment [4], < 5 µM; in experiment [5], < 5 µM.

As to `CS(=O)(=O)CCNCc1nc(-c2ccc3ncnc(Nc4ccc(OCc5cccc(F)c5)cc4)c3c2)cs1` [Example 14, N-{4-[(3-fluorobenzyl)oxy]phenyl}-6-[2-({[2-(methanesulphonyl)ethyl]amino}methyl)-1,3-thiazol-4-yl]-4-quinazolinamine], the IC50 is < 0.1 µM against c-erbB-2; < 5 µM in experiment [1]; > 50 µM in experiment [2]; < 5 µM in experiment [3]; < 5 µM in experiment [4]; < 5 µM in experiment [5].

For the compound `COc1cc(Nc2ncnc3ccc(-c4ccc(CNCCS(C)(=O)=O)o4)cc23)ccc1OCc1cccc(F)c1` [Example 9, N-{4-[(3-fluorobenzyl)oxy]-3-methoxyphenyl}-6-[5-({[2-(methanesulphonyl)ethyl]amino}methyl)-2-furyl]-4-quinazolinamine], the IC50 in experiment [1] was < 5 µM; in experiment [2] it was 5 to 25 µM; in experiment [3], < 5 µM; in experiment [4], < 5 µM; in experiment [5], < 5 µM.
